The values below come from patent US4558007A, “Process for detecting LDHk isozyme activity in human serum for use as a diagnostic aid and for monitoring response to cancer therapy” (Health Research, Inc. (Roswell Park Divison), priority 1983, dated 1985).

In assay [1] the test system is LDHk. Description: Inhibition of LDHk by dinucleoside tetraphosphates. It counts as biochemical. The settings on record: for Mode of inhibition of LDHk versus NAD+: competition with NAD+; for Ki: property shared by LDHk from cells transformed by Ki-MSV, human tumors, human liver, rat retina.
Another assay relates to human serum LDHk. Kind of assay: Inhibition of serum LDHk (gel lanes stained in presence of inhibitor). It counts as biochemical. The settings on record: 3×10^-5 M in staining mixture, 4 1/2 hours. The method, then:
A reverse polarity gel system was used to isolate the LDHk isozyme which has a positive charge at pH 8.9 and migrates towards the cathode. The gel system was based on an imidazole/borate buffer system. The samples were analyzed on 3 mm thick, 20 well, 5.5% polyacrylamide slab gels photopolymerized with a riboflavin catalyst in the absence of persulfate. The gels were cast with a 0.15M potassium tetraborate buffer at pH 8.3. The lower reservoir buffer was 0.10M potassium tetraborate, pH 8.3, and the upper reservoir buffer contained 0.08M imidazole and 0.02M boric acid, pH 8.9. Gels were run an average of 16 hours at a voltage of 220 V, with cooling provided by circulating ice water.
Staining was done using the nitroblue tetrazolium/phenazine methosulfate composition of Dietz and Lubrano as described previously using 1M Tris buffer, pH 8.0. The staining mixture was supplemented with 2% glycerol to complex with the borate ions. These gels were stained in the dar at a temperature of about 37° C. for 41/2 hours in an Ehrlenmeyer suction flask under a nitrogen atmosphere. After staining, the gels were fixed, scanned to measure the amount of stain, and stored as described above.
An inhibition experiment was conducted on the serum LDHk. […]

Assay [2] concerns LDHk. The settings on record: background description of the isozyme; cited from earlier work.
Assay [3] relates to LDHk detected in human tumor tissues. As to conditions: Anderson et al. 1981 study of human carcinomas; cited from earlier work.

As a reminder, the Ki is the equilibrium dissociation constant of an inhibitor or competing ligand from its target. The low end stands for a stronger hold on the target, the high end for a looser hold on the target. On to `Nc1ncnc2c1ncn2[C@@H]1O[C@H](COP(=O)(O)OP(=O)(O)OP(=O)(O)OP(=O)(O)OC[C@H]2O[C@@H](n3cnc4c(N)ncnc43)[C@H](O)[C@@H]2O)[C@@H](O)[C@H]1O` [diadenosine tetraphosphate, 5',5' diadenosine tetraphosphate], for which, in the assay with LDHk [1], the “Mode of inhibition of LDHk versus NAD+” value is given as “not competitive” and the Ki was around 50 µM. For the same molecule, the “Inhibition of human serum LDHk activity” value in the assay on human serum LDHk is reported as “not inhibited”. Besides, the “Inhibition of LDHk” value with LDHk [2] was “more strongly”.
In the case of `Nc1nc2c(ncn2[C@@H]2O[C@H](COP(=O)(O)OP(=O)(O)OP(=O)(O)OP(=O)(O)OC[C@H]3O[C@@H](n4cnc5c(=O)[nH]c(N)nc54)[C@H](O)[C@@H]3O)[C@@H](O)[C@H]2O)c(=O)[nH]1` [diguanosine tetraphosphate, 5',5' diguanosine tetraphosphate], in the assay with LDHk [1], the “Mode of inhibition of LDHk versus NAD+” value is “not competitive” and the Ki is around 50 µM. The “Inhibition of LDHk” value with LDHk [2] is given as “more strongly”.
Turning to `Nc1nc2c(ncn2[C@@H]2O[C@H](COP(=O)(O)OP(=O)(O)OP(=O)(O)O)[C@@H](O)[C@H]2O)c(=O)[nH]1` [GTP, guanosine triphosphate], the “Inhibition of LDHk” value with LDHk [2] is given as “inhibited”. Also, in assay [3], the “Inhibition of LDHk of human tumor tissues” value was “inhibited”.
